Data from US8802818B2, “Prostaglandin-F2 alpha receptor modulators and uses thereof” (priority 2011, dated 2014).
Square brackets hold non-standard residues; d marks the D form. Peptide text beside a SMILES is read from it. * marks the point of attachment. 3Pal = N[C@@H](Cc1cccnc1)C(=O)O; β3hF = N[C@H](CC(=O)O)Cc1ccccc1; PhAc = O=C(Cc1ccccc1)*; azaGly = NNC(=O)O

Experiments:
SW480 cells = experiment: Migration/invasion of SW480 cells in collagen-coated Boyden chambers; assay type: cell-based, human; settings: 1 μM, 30 min pre-treatment, 16 h; for PGF2α-induced migration of SW480 cells: then 1 μM PGF2α
Method: SW480 cells were re-seeded into collagen-coated Boyden chambers, pretreated with PDC (1 μM, 30 min.), and stimulated or not with 1 μM PGF2α and PGE2 (use to show specificity of analogs for FP). Migration/invasion was assessed after 16 h.
Migration/invasion was assessed after 16 h.

PGF2α receptor (FP) [1] = molecular target: T1, PGF2α receptor (FP) (Homo sapiens, UniProt P43088); experiment: Cell ruffling in FP expressing HEK293 cells; settings: 30 min; for inhibition of FP-induced (PGF2α-mediated) cell ruffling: pretreated 1 μM, then PGF2α 1 μM
T1 sequence (P43088 whole entry, species assumed): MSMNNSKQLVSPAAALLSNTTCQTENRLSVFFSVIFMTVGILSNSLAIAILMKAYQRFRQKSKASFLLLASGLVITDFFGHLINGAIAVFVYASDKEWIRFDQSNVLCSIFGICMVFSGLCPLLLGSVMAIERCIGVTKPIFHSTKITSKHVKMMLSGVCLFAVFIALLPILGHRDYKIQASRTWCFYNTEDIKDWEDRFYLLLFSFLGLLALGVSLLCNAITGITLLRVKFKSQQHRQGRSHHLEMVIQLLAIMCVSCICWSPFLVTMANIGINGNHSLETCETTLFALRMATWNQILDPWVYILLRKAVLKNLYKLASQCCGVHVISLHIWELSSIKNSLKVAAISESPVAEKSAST
Text: Nine fields (50-75 cells/field) per cover slip were quantified to assess circular cellular ruffling.

PGF2α receptor (FP) [2] = molecular target: T1, PGF2α receptor (FP); experiment: ERK1/2 MAP kinase activation in HEK293 cells stably transfected with HA-FP (western blot); assay type: cell-based; design: expressed in transfected cells; host or cells: HEK293; settings: 1 μM azapeptide 30 min pre-treatment, then PGF2α 0.1 μM or 1 μM for 5 min
Method: PGF2αreceptor (FP) expressing cells were serum-starved and pre-treated with 1 μM azapeptides (6-9) for 30 min and then stimulated with 0.1 μM (A) or 1 μM (B) PGF2α for 5 min as described.^24 Blots were quantified by densitometry and plotted compared to the non-stimulated (NS) condition. Results are representative of five independent experiments;
PGF2α was obtained from Cayman. Mouse monoclonal anti-p-ERK and rabbit polyclonal anti-total ERK antibodies were from Cell Signaling. HEK293 cells stably transfected with HA-FP (HA-FP cells)^24 were employed to measure activation of MAP kinase by PGF2α using conventional western blot methods. Briefly, HA-FP cells in 6-well plates were starved for 30 min and pre-treated with 1 μM of an azapeptide (6-9) for 30 min, and then challenged with PGF2α (0.1 μM or 1 μM) for 5 min. Cells were lysed in Laemmli buffer 2× (250 mM Tris-HCl pH 6.8, 2% SDS, 10% Glycerol, 0.01% Bromophenol blue). Lysates were electrophoresed on a 10% SDS-PAGE gels, transferred to nitrocellulose membranes, and probed using mouse anti-p-ERK1/2 and rabbit anti-total-ERK1/2 antibodies. Blots were quantified by densitometry and statistical tests were performed as described.^24

[3] = system: PGF2α-induced myometrial contractions; experiment: Ex vivo myometrial contraction assay; design: species or system mice; settings: mouse myometrial strips; compound given 15 min before PGF2α
Method: FIGS. 7A and 7B show the effects of PDC113.824 and azapeptides 5-9 on mean tension in myometrial preparations induced by PGF2α. At the beginning of each experiment, mean tension of spontaneous myometrial contraction was considered as the basal response. […] Values as mean±SEM of 3-5 experiments for each compound; p<0.05 compared to all values without asterisks.
Ex vivo myometrial contraction assays were performed as previously described^24. Briefly, uteri from mice were obtained from animals immediately after delivery.

[4] = system: SW480, HT29, Caco-2 and HTC116 cells; experiment: Effect of PGF2α and PGE2 on colorectal cancer cell migration (collagen-coated Boyden chamber); assay type: cell-based, human; settings: for migration of colorectal adenocarcinoma cell lines on stimulation: mediator 1 μM, 16 h, SW480, HT29, Caco-2, HTC116
Method: SW480 (p53 mut, K-Ras mut, APC mut), HT29 (p53 mut, K-Ras WT, APC mut), Caco-2 (p53 mut, K-Ras WT, APC mut), and HTC116 ([…], K-Ras mut, APC mut) cells were re-seeded into Boyden chambers coated with collagen, stimulated or not with FBS (10%), PGF2α (1 μM) or PGE2 (1 μM). Migration/invation was assessed after 16 h. Results are presented as mean±SEM of 3 independent experiments. *p<0.05, **p<0.01, ***p<0.001 compared to non-stimulated (ns) conditions;

SMILES | PGF2α-mediated ERK1/2 signaling relative to cells stimulated with PGF2α alone (PGF2α receptor (FP) [2]) | PGF2α-induced migration of SW480 cells (SW480 cells) | inhibition of FP-induced (PGF2α-mediated) cell ruffling (PGF2α receptor (FP) [1]) | further results
O=C(O)C[C@H](Cc1ccccc1)NC(=O)[C@H](Cc1cccnc1)NC(=O)[C@@H]1CCCN1C(=O)NNC(=O)Cc1ccccc1 [Compound 5] (PhAc-[azaGly]P[3Pal][β3hF]-OH) | – | significantly impaired the ability of SW480 cells to migrate | as effective as PDC113.824 in inhibiting FP-induced cell ruffling | –
C=CCN(NC(=O)Cc1ccccc1)C(=O)N1CCC[C@H]1C(=O)N[C@@H](Cc1cccnc1)C(=O)N[C@H](CC(=O)O)Cc1ccccc1 [Compound 8] | hindered | significantly impaired the ability of SW480 cells to migrate | as effective as PDC113.824 in inhibiting FP-induced cell ruffling | –
O=C(O)C[C@H](Cc1ccccc1)NC(=O)[C@H](Cc1cccnc1)NC(=O)[C@@H]1CC[C@@H]2CC[C@H](NC(=O)Cc3ccccc3)C(=O)N21 [PDC113.824, Phenylacetyl-(3S,6S,9S)-I^2aa-(2S)-(3-pyridyl)alaninyl-(3S)-β-homophenylalanine, reference compound] | – | significantly blocked PGF2α-induced migration | inhibiting FP-induced cell ruffling | PGE2-induced migration of SW480 cells (SW480 cells; then 1 μM PGE2): without affecting migration induced by PGE2; migration of SW480 cells in the absence of PGF2α and PGE2 (SW480 cells): did not affect the migration of SW480 cells; reduction of PGF2α-induced myometrial contractions (mean tension) [3]: active
CCCCC[C@H](O)/C=C/[C@H]1[C@H](O)CC(=O)[C@@H]1C/C=C\CCCC(=O)O [PGE2] | – | – | – | migration of colorectal adenocarcinoma cell lines on stimulation [4]: enhanced migration of the four (4) cell lines examined
CCCCC[C@H](O)/C=C/[C@@H]1[C@@H](C/C=C\CCCC(=O)O)[C@@H](O)C[C@H]1O [PGF2α] | – | – | – | potency of PGF2α on migration compared with PGE2 ([4]; SW480 and HT29 cells): as potent as PGE2; migration of colorectal adenocarcinoma cell lines on stimulation [4]: enhanced migration of the four (4) cell lines examined; membrane ruffle formation, share of FP cells (PGF2α receptor (FP) [1]; PGF2α 1 μM): 65.7 ± 1.6%

Continued, in another order:

PGF2α-mediated ERK1/2 signaling relative to cells stimulated with PGF2α alone (PGF2α receptor (FP) [2]) | SMILES | PGF2α-induced migration of SW480 cells (SW480 cells) | inhibition of FP-induced (PGF2α-mediated) cell ruffling (PGF2α receptor (FP) [1]) | further results
significantly potentiated | C#CCN(NC(=O)Cc1ccccc1)C(=O)N1CCC[C@H]1C(=O)N[C@@H](Cc1cccnc1)C(=O)N[C@H](CC(=O)O)Cc1ccccc1 [Compound 6, Phenylacetyl-aza-propargylglycinyl-(2S)-prolyl-(2S)-3-(pyridyl)-alaninyl-(3S)-β-homophenylalanine] | had an effect on cell migration but was not as effective as the others | slightly reduced PGF2α-mediated cell ruffling | –
significantly potentiated | O=C(O)C[C@H](Cc1ccccc1)NC(=O)[C@H](Cc1cccnc1)NC(=O)[C@@H]1CCCN1C(=O)N(Cc1ccccc1)NC(=O)Cc1ccccc1 [Compound 7] | significantly impaired the ability of SW480 cells to migrate | as effective as PDC113.824 in inhibiting FP-induced cell ruffling | reduction of PGF2α-induced myometrial contractions (mean tension) [3]: active
hindered | CN(NC(=O)Cc1ccccc1)C(=O)N1CCC[C@H]1C(=O)N[C@@H](Cc1cccnc1)C(=O)N[C@H](CC(=O)O)Cc1ccccc1 [Compound 9] | relatively lower effect | slightly reduced PGF2α-mediated cell ruffling | –
